Source: patent US7820197B2, “Percutaneous preparations” (Astellas Pharma Inc., priority 2002, dated 2010)
Like-named read-outs stand apart in the source and are kept apart here. One block for each molecule: values may come before it.

Legend:
[1] = Solubility properties; assay type: physicochemical
[2] = as compared to control; cited from earlier work
[3] = test system: dihydrotachysterol-induced calcification (calciphylaxis); details: cited from earlier work
[4] = Percutaneous absorption test of 14C-incadronate aqueous solution; assay type: in vivo, rat; details: in 24 hours after the administration
Text: The rat abdominal hair was shaved and a round cell (made of acryl, 20 mm in diameter) was fixed on the skin with a medical adhesive. […] During the test, the rat was fixed dorsally under urethane anesthesia. Bone tissue specimens were burnt in a tissue combustion equipment and the radioactivity was counted by a scintillation counter.

solubility in an alkaline solvent ([1]; alkaline solvent): soluble in an alkaline solvent | solubility in an organic solvent ([1]; organic solvent): insoluble even in an organic solvent | solubility in water ([1]; water): practically insoluble in water
Structure (SMILES): O=P(O)(O)C(O)(Cc1cnc2ccccn12)P(=O)(O)O [minodronic acid, 1-hydroxy-2-(imidazo[1,2-a]pyridin-3-yl)ethylidenebisphosphonic acid]

Structure (SMILES): CC(O)(P(=O)(O)O)P(=O)(O)O [etidronate]
enhancement of penetration effect by decyl methyl sulfoxide [2]: about 6 fold | skin calcium level ([3]; composition of etidronate and penetrating carrier containing decyl methyl sulfoxide): 2.026% | skin calcium level ([3]; etidronate alone dissolved in the penetrating carrier vehicle): 0.067%

Structure (SMILES): O=P([O-])(O)C(NC1CCCCCC1)P(=O)([O-])O.[Na+].[Na+] [incadronate, disodium incadronate]
concentration in the bone tissues [4]: very high concentration in the bone tissues
